Reference: article PMC1481600 (AIDS Research and Therapy, 2006)
Where two headings read alike, the source gives them in different places. Non-standard residues stand in square brackets, D forms with d. Residues, ends and D or L forms follow the SMILES beside them. Groups on a side chain read outwards from the residue. *: point of attachment. Biotin = O=C1N[C@H]2[C@H](CS[C@H]2CCCCC(=O)*)N1; Ahx = NCCCCCC(=O)O

Columns and labels:
[1] = system: HIV-1 strain LAV-Vbu3
[2] = in vitro; conditions: human
[3] = system: HIV-1 strain LAV-Vbu3; test: microbe, parasite or virus in culture; conditions: Human immunodeficiency virus 1, MT2, 120 h, read-out: EC50 (anti-HIV activity)
[4] = set-up: method as in PMID 15546199; conditions: spiked plasma, 37°C; cited from earlier work
[5] = set-up: method as in PMID 15546199; conditions: PBS pH 7.4, 37°C; cited from earlier work

| SMILES | Therapeutic Index (LC50/EC50) ([1]; strain LAV-Vbu3) | CC50 [2] | anti-HIV potency relative to L-Tat9 (times more potent) ([1]; MT-2 cells infected with HIV-1) | EC50 ([1]; strain LAV-Vbu3) | also measured |
| --- | --- | --- | --- | --- | --- |
| CC(=O)N[C@@H](CCCNC(=N)N)C(=O)N[C@@H](CCCCN)C(=O)N[C@@H](CCCCN)C(=O)N[C@@H](CCCNC(=N)N)C(=O)N[C@@H](CCCNC(=N)N)C(=O)N[C@@H](CCC(N)=O)C(=O)N[C@@H](CCCNC(=N)N)C(=O)N[C@@H](CCCNC(=N)N)C(=O)N[C@@H](CCCNC(=N)N)C(N)=O [L-Tat9, reference compound] | 1 | 53.8 µM |  |  | Therapeutic Index (LC50/EC50) ([1]; listed as L-form of Tat9): poorest therapeutic index; EC50 ([1]; read-out: EC50 (anti-HIV activity), MT-2 cells infected with HIV-1 strain LAV-Vbu3, MOI 0.01, MTT, 5 days): 51.3 µM |
| CC(=O)N[C@H](CS)C(=O)N[C@H](CCCCNC(=O)CCCCCNC(=O)CCCC[C@@H]1SC[C@@H]2NC(=O)N[C@@H]21)C(=O)N[C@H](CCCNC(=N)N)C(=O)N[C@H](CCCNC(=N)N)C(=O)N[C@H](CCCNC(=N)N)C(=O)N[C@H](CCC(N)=O)C(=O)N[C@H](CCCNC(=N)N)C(=O)N[C@H](CCCNC(=N)N)C(=O)N[C@H](CCCCN)C(=O)N[C@H](CCCCN)C(=O)N[C@H](CCCNC(=N)N)C(N)=O [R.I.CK(biotin)-Tat9] (Ac-[dC][dK]([Ahx-Biotin])[dR][dR][dR][dQ][dR][dR][dK][dK][dR]-NH2) | 2600 | 46.8 µM | 2850 fold | 0.018 µM | anti-HIV potency relative to RI-Tat9 (times more potent) ([1]; MT-2 cells infected with HIV-1): 47 fold; R (ratio of the EC50 of the bioconjugate to that of its parent drug R.I.CK-Tat9 or SQV) ([1]; MT-2 cells, HIV-1 LAV-Vbu3, MOI 0.01): 0.02 |
| CC(=O)N[C@H](CS)C(=O)N[C@H](CCCCN)C(=O)N[C@H](CCCNC(=N)N)C(=O)N[C@H](CCCNC(=N)N)C(=O)N[C@H](CCCNC(=N)N)C(=O)N[C@H](CCC(N)=O)C(=O)N[C@H](CCCNC(=N)N)C(=O)N[C@H](CCCNC(=N)N)C(=O)N[C@H](CCCCN)C(=O)N[C@H](CCCCN)C(=O)N[C@H](CCCNC(=N)N)C(N)=O [R.I.CK-Tat9, N-acetyl-ckrrrqrrkkr-NH2] (Ac-[dC][dK][dR][dR][dR][dQ][dR][dR][dK][dK][dR]-NH2) | 35 | 29.8 µM | 60 fold | 0.85 µM |  |
| CC(C)(C)NC(=O)[C@@H]1C[C@@H]2CCCC[C@@H]2CN1C[C@@H](O)[C@H](Cc1ccccc1)NC(=O)[C@H](CC(N)=O)NC(=O)c1ccc2ccccc2n1 [SQV(MeSO3H) (control), saquinavir, reference compound] |  |  |  |  | Therapeutic Index (LC50/EC50) ([1]; MT-2 cells, LC50 in uninfected cells / EC50 in infected cells): 1667; EC50 [3]: 0.015 µM; CC50 at 5 days [2]: 25 µM |
| CC(C)(C)NC(=O)[C@@H]1C[C@@H]2CCCC[C@@H]2CN1C[C@@H](OC(=O)C(N)CS)[C@H](Cc1ccccc1)NC(=O)[C@H](CC(N)=O)NC(=O)c1ccc2ccccc2c1 (stereo partly shown) [SQV-Cys ester] |  |  |  |  | half-life of release of active SQV (ester bond) [4]: 0.9 h; half-life of release of active SQV (ester bond) [5]: 14 h |
